Measured values as given in US4605674A, “Substituted acetophenones and compositions containing them” (Hoffmann-La Roche Inc., priority 1979, dated 1986).
In brackets after ≈: the same amount, converted by molar mass. Where two headings read alike, the source gives them in different places.

Tests used:
in vivo = conditions: mouse, DDY mice, single dose
Experimental: ^(1) DDY mice weighing 15-20 g were treated with a single dose of the
compound. Survivors were recorded on day 21.
^(2) Compounds were dissolved in dimethylsulfoxide.
^(3) Compounds were suspended with solution of 0.5% carboxymethyl

Coxsackievirus B1 = assay: In vivo antiviral activity against lethal infection with Coxsackievirus B1 in mice; parameters: species or system DDY mice; conditions: up to 21 days
Experimental: The activity of the compounds against lethal infection with Coxsackievirus B1 was tested in mice. DDY mice weighing about 15 g were infected intraperitoneally with about the tenfold LD50 dose of the virus. The infected mice were treated 9 times with the compounds either orally 0, 2, 5, 18, 24, 42, 48, 66 and 72 hours or intraperitoneally 1, 2, 4, 18 and 28 hours after infection. The survivals were recorded up to 21 days.
Non-treated (controls) mice died at 3 to 5 days after infection.

rhinovirus HGP = assay: Inhibition of viral cytopathogenic effect (c.p.e.) of rhinovirus HGP in HeLa cells; type: cell-based, human rhinoviruses; conditions: Enterovirus, HeLa, 48 h, read-out: IC50 against rhinovirus HGP (concentration inhibiting the viral c.p.e. by 50%)
Experimental: A suspension of HeLa cells (6×10^4) was mixed with rhinovirus HGP (3×10^3 plaque forming units, PFU) and was plated in a microtest plate containing the compounds to be tested serially diluted. The cells were then cultured with Eagle's minimum essential medium containing 2% calf serum, 1% tryptose phosphate broth, 100 μg/ml of streptomycin sulfate and 20 unit/ml of penicillin G. Viral c.p.e. (cytopathogenic effect) was observed by a microscope after 2 days culture at 33° C.
The antiviral activity of the tested compounds is expressed by the concentration inhibiting the viral c.p.e. by 50% when compared to the control culture (IC50).

HeLa cells = assay: Cytotoxic symptoms in HeLa cells in the viral replication test; type: cell-based
Experimental: Effect of 2'-hydroxy-4,4',6'-trimethoxychalcone on the replication of rhinovirus HGP in HeLa cells was tested. Monolayers of HeLa cells (4×10^5) to which 2'-hydroxy-4,4',6'-trimethoxychelcone at various concentrations had been added were infected with rhinovirus HGP (4×10^4 PFU) for 60 minutes. Thereafter, the cells were washed with Eagle's minimum essential medium and further cultured with said medium containing 2% calf serum, 1% tryptose phosphate broth, 100 μg/ml of streptomycin sulfate and 20 units/ml of penicillin G. The total yield of the virus replicated in the culture medium was assayed 2 days after infection.
In the same manner the effect of 4'-ethoxy-2'-hydroxy-4,6'-dimethoxychalcone on the replication of rhinovirus type 21 in HeLa cells was tested.

[1] = ip, i.p., dissolved in dimethylsulfoxide, day 21, read-out: LD50 i.p.
[2] = po, p.o., suspended in 0.5% carboxymethyl cellulose, day 21, read-out: LD50 p.o.
[3] = 20 mg/kg × 9, p.o., control 20%
[4] = 40 mg/kg × 9, p.o., control 20%

| Structure (SMILES) | LD50 at 504 h (in vivo; [1]) [mg/kg] | LD50 at 504 h (in vivo; [2]) [mg/kg] | Survival (Coxsackievirus B1; [3]) [%] | Survival (Coxsackievirus B1; [4]) [%] | IC50 (rhinovirus HGP) [µg/mL] | Survival (Coxsackievirus B1; 40 mg/kg × 5, i.p., control 0%) [%] | Survival (Coxsackievirus B1; 20 mg/kg × 5, i.p., control 0%) [%] | cytotoxic symptom (HeLa cells; 0.1-1.0 μg/ml, rhinovirus HGP test) | cytotoxic symptom (HeLa cells; 0.03 μg/ml, rhinovirus type 21 test) |
| --- | --- | --- | --- | --- | --- | --- | --- | --- | --- |
| COc1cc(O)c(C(=O)C=Cc2cccs2)c(OC)c1 [2'-hydroxy-4',6'-dimethoxy-3-(2-thienyl)-acrylophenone] | > 1000 | > 5000 | 30 | 70 | 0.03 (≈ 0.103 µM) | – | – | – | – |
| COc1ccc(/C=C/C(=O)c2c(OC)cc(OC)cc2OC(C)=O)cc1 [2'-acetoxy-4,4',6'-trimethoxychalcone] | > 1000 | > 5000 | 40 | 70 | 0.006 (≈ 0.0168 µM) | 50 | – | – | – |
| CCC(=O)Oc1cc(OC)cc(OC)c1C(=O)/C=C/c1ccc(OC)cc1 [2',4,4'-trimethoxy-6'-(propionyloxy)chalcone] | > 500 | > 5000 | – | – | 0.01 (≈ 0.027 µM) | 75 | 25 | – | – |
| COc1ccc(/C=C/C(=O)c2c(O)cc(OC)cc2OC)cc1 [2'-hydroxy-4,4',6'-trimethoxychalcone] | > 1000 | > 5000 | 40 | 60 | 0.01 (≈ 0.0318 µM) | – | – | without showing any cytotoxic symptom | – |
| COc1ccc(/C=C/C(=O)c2c(OC)cc(OC)cc2OC(=O)C(C)(C)C)cc1 [2',4,4'-trimethoxy-6'-(pivaloyloxy)-chalcone] | > 1000 | > 5000 | – | – | 0.01 to 0.03 (≈ 0.0251 to 0.0753 µM) | – | – | – | – |
| CCOc1ccc(/C=C/C(=O)c2c(OCC)cc(OCC)cc2OC(=O)CC)cc1 [2',4,4'-triethoxy-6'-(propionyloxy)-chalcone] | > 1000 | > 5000 | – | – | 0.1 to 0.3 (≈ 0.242 to 0.727 µM) | – | – | – | – |
| CCOc1cc(OC)cc(O)c1C(=O)C=Cc1ccc(C)o1 [2'-ethoxy-6'-hydroxy-4'-methoxy-3-(5-methyl-2-furyl)-acrylophenone] | > 500 | > 1000 | – | – | 0.04 (≈ 0.132 µM) | – | – | – | – |
| CCOc1cc(O)c(C(=O)C=Cc2ccc(C)o2)c(OC)c1 [4'-ethoxy-2'-hydroxy-6'-methoxy-3-(5-methyl-2-furyl)-acrylophenone] | > 500 | > 1000 | – | – | 0.03 (≈ 0.0992 µM) | – | – | – | – |
| COc1cc(O)c(C(=O)/C=C/c2ccc(SC)cc2)c(OC)c1 [2'-hydroxy-4',6'-dimethoxy-4-(methylthio)-chalcone] | > 1000 | > 5000 | – | – | 0.03 (≈ 0.0908 µM) | – | – | – | – |
| CCCOc1cc(OC)cc(OC(=O)CC)c1C(=O)/C=C/c1ccc(OC)cc1 [4,4'-dimethoxy-2'-(propionyloxy)-6'-propoxychalcone] | > 500 | > 1000 | – | – | 0.03 to 0.1 (≈ 0.0753 to 0.251 µM) | – | – | – | – |
| CCOc1cc(O)c(C(=O)/C=C/c2ccc(OC)cc2)c(OC)c1 [4'-ethoxy-2'-hydroxy-4,6'-dimethoxychalcone] | > 1000 | > 5000 | – | – | 0.002 to 0.006 (≈ 0.00609 to 0.0183 µM) | – | – | – | without showing any cytotoxic symptom |
| CCC(=O)Oc1cc(OC)cc(OC)c1C(=O)C=Cc1ccco1 [3-(2-furyl)-2',4'-dimethoxy-6'-(propionyloxy)-acrylophenone] | > 500 | > 1000 | – | – | 0.1 to 0.3 (≈ 0.303 to 0.908 µM) | – | – | – | – |
| CCOc1cc(O)c(C(=O)C=Cc2ccc(C)o2)c(OCC)c1 [2',4'-diethoxy-6'-hydroxy-3-(5-methyl-2-furyl)-acrylophenone] | > 500 | > 1000 | – | – | 0.04 to 0.12 (≈ 0.126 to 0.379 µM) | – | – | – | – |
| CCC(=O)Oc1cc(OC)cc(OC)c1C(=O)/C=C/c1ccc(Cl)cc1 [4-chloro-2',4'-dimethoxy-6'-(propionyloxy)-chalcone] | > 1000 | > 5000 | – | – | 0.1 to 0.3 (≈ 0.267 to 0.8 µM) | – | – | – | – |
| CCOc1cc(O)c(C(=O)/C=C/c2ccc(OC)cc2)c(OCC)c1 [2',4'-diethoxy-6'-hydroxy-4-methoxychalcone] | > 1000 | > 2000 | – | – | 0.03 to 0.1 (≈ 0.0876 to 0.292 µM) | – | – | – | – |
| CCC(=O)Oc1cc(OC)cc(OC(C)C)c1C(=O)/C=C/c1ccc(OC)cc1 [2'-isopropoxy-4,4'-dimethoxy-6'-(propionyloxy)chalcone] | > 500 | > 1000 | – | – | 0.01 to 0.03 (≈ 0.0251 to 0.0753 µM) | – | – | – | – |
| COc1ccc(/C=C/C(=O)c2c(OC)cc(OC)cc2OC(=O)[C@H](C)N)cc1 [2'-(L-alanyloxy)-4,4',6'-trimethoxychalcone] | > 180 | > 1000 | – | – | 0.03 to 0.1 (≈ 0.0778 to 0.259 µM) | – | – | – | – |
| COc1cccc(/C=C/C(=O)c2c(O)cc(OC)cc2OC)c1 [2'-hydroxy-3,4',6'-trimethoxychalcone] | > 500 | > 1000 | – | – | 0.1 (≈ 0.318 µM) | – | – | – | – |
| CCOc1ccc(/C=C/C(=O)c2c(OC)cc(OC)cc2OC(=O)CC)cc1 [4-ethoxy-2',4'-dimethoxy-6'-(propionyloxy)-chalcone] | > 1000 | > 5000 | – | – | 0.03 to 0.1 (≈ 0.078 to 0.26 µM) | – | – | – | – |
| CCOc1ccc(/C=C/C(=O)c2c(O)cc(OCC)cc2OCC)cc1 | > 1000 | > 3000 | – | – | 0.25 (≈ 0.701 µM) | – | – | – | – |
| COc1cc(O)c(C(=O)/C=C/c2ccc(OC)c(OC)c2)c(OC)c1 [2'-hydroxy-3,4,4',6'-tetramethoxychalcone] | > 500 | > 500 | – | – | 0.1 to 0.3 (≈ 0.29 to 0.871 µM) | – | – | – | – |
| CCC(=O)Oc1cc(OC)cc(OC)c1C(=O)C=Cc1ccc2c(c1)OCO2 [2',4'-dimethoxy-3,4-(methylenedioxy)-6'-(propionyloxy)-chalcone] | > 500 | > 1000 | – | – | 0.1 (≈ 0.26 µM) | – | – | – | – |
| COc1ccc(/C=C/C(=O)c2ccc(OC)cc2O)cc1 [2'-hydroxy-4,4'-dimethoxychalcone] | > 1000 | > 2500 | – | – | 0.3 to 1 (≈ 1.06 to 3.52 µM) | – | – | – | – |
